25 compounds from patent US20230203041A1, “ANTAGONISTS OF THE ADENOSINE A2A RECEPTOR” (AdoRx Therapeutics Limited, priority 2020, published 2023) can be followed below.

In experiment [1] the target is T1, human Adenosine A2b receptor (Homo sapiens, UniProt P29275).
T1 construct: expressed in transfected cells; host or cells: CHO cell membranes
T1 sequence (P29275 1-332): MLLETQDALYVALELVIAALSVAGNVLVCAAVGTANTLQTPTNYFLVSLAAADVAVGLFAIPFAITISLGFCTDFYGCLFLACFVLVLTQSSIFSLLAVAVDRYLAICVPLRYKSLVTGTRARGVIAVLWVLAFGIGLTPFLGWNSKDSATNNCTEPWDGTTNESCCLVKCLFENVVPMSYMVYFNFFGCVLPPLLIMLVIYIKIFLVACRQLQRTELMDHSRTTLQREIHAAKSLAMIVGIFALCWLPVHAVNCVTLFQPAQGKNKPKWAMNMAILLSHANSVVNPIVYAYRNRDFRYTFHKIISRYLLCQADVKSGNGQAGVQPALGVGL
As to the kind of experiment: Adenosine receptor TR-FRET binding assay (CA200645 displacement), A2b. To be noted: 30 nM CA200645, CHO cell membranes, 2 hours at room temperature.

Experiment [2] concerns the target T2, human Adenosine A2a receptor (Homo sapiens, UniProt P29274).
T2 construct: expressed in transfected cells; host or cells: CHO cell membranes
The experiment can be described thus: Adenosine receptor TR-FRET binding assay (CA200645 displacement), A2a. The following applies: 100 nM CA200645, CHO cell membranes, 2 hours at room temperature.
Protocol: (§1) All FRET binding experiments were conducted at room temperature in white 384-well plates, in assay binding buffer containing 1×LabMed (Cisbio, France), 100 μg/mL saponin, 1% DMSO and 0.02% pluronic acid. Binding of the fluorescently labelled Adenosine receptor antagonist XAC (CA200645, FRET acceptor) to terbium-labelled A1, A2a, A2b and A3 adenosine receptors (FRET donors) was detected by time-resolved FRET due to the close proximity of the donor and acceptor in a binding event. To investigate the ability of unlabelled test compounds to bind to Adenosine A1, A2a, A2b and A3 receptors, dose response curves were constructed that determined the ability of a range of concentrations to inhibit the binding of 30 nM CA200645 to the A2b receptor and 100 nM CA200645 to the A1, A2a, and A3 receptor.
(§2) Serial dilution (1:3 dilutions) of test compounds in neat DMSO and transfer of a 400 nL sample of test compound into the assay plate was carried out using the Mosquito (TTP Labtech, UK). The compound samples were incubated for 2 hours at room temperature with a fixed concentration of CA200645 defined for each receptor (see above) and CHO cell membranes containing the human Adenosine A1 (0.5 μg/well), A2a (0.3 μg/well), A2b (1 μg/well) or A3 (1 μg/well) receptor in 40 μL of assay buffer. Total and non-specific binding of CA200645 was determined in the absence and presence of 10 μM XAC, respectively. Following 2 hours incubation, the level of CA200645 binding was detected on a Pherastar FSX (BMG Labtech, Germany) using standard TR-FRET settings. The terbium donor was excited with three laser flashes at a wavelength of 337 nm, and donor and acceptor emission was detected at 620 nm and 665 nm wavelengths, respectively. FRET ratios were obtained by multiplying the acceptor/donor ratio value by 10,000. Specific binding was determined by subtracting the non-specific binding FRET ratio from the total binding FRET ratio. Compound IC50 curves were analysed using GraphPad Prism 7.0 (GraphPad, USA) and Ki affinity values were determined from the obtained IC50 values using the method of Cheng and Prusoff.

In experiment [3] the target is T3, human Adenosine A1 receptor (Homo sapiens, UniProt P30542).
T3 sequence (P30542 1-326): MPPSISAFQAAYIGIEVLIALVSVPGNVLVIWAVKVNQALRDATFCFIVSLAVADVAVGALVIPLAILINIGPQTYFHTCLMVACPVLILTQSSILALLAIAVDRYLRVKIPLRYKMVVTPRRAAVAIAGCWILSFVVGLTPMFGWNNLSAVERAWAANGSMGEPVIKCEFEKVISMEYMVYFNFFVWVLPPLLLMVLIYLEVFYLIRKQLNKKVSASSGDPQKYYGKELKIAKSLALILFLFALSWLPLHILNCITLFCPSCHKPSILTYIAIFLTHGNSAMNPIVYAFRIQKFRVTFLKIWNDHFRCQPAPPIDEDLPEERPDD
As to the kind of experiment: Adenosine receptor TR-FRET binding assay (CA200645 displacement), A1.
Protocol: as §1, §2

Experiment [4] concerns the target T4, human Adenosine A3 receptor (Homo sapiens, UniProt P0DMS8).
T4 sequence (P0DMS8 1-318): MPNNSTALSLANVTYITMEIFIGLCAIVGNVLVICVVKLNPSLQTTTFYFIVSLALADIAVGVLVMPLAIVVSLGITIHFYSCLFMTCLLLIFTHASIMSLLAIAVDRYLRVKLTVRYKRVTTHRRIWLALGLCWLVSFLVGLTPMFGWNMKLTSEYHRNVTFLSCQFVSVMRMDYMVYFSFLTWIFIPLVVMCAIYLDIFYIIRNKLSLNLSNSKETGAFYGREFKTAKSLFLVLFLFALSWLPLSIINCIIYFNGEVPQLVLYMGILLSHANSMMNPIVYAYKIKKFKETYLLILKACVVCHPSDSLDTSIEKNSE
As to the kind of experiment: Adenosine receptor TR-FRET binding assay (CA200645 displacement), A3.

T2 sequence (P29274 whole entry): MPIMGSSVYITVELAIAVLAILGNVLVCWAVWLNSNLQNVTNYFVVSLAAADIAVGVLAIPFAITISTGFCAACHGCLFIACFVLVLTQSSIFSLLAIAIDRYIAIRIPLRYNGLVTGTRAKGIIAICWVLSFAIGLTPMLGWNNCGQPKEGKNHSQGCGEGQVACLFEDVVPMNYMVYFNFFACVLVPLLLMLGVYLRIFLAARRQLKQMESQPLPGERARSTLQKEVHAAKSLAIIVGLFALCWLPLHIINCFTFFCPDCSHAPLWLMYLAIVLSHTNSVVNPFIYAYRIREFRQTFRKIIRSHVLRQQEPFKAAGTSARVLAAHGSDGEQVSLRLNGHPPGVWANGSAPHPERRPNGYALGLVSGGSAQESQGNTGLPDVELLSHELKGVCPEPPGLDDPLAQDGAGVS

With `N#Cc1cccc(-c2nn3ccc(N)nc3c2-c2cn[nH]c2)c1` [Example 1.1], the results for the Ki in experiment [1], in experiment [2] and in experiment [3] were 0.239 µM, 0.147 µM and 0.095 µM, respectively.
For `Cc1cc(-c2c(-c3cccc(C#N)c3)nn3ccc(N4CCOCC4)nc23)cc(Cl)n1` [Example 2.33], the Ki in experiment [1] is 0.212 µM; in experiment [2], 0.0225 µM; in experiment [4], 2 µM.
Regarding `Cc1cc(-c2c(-c3cccc(C#N)c3)nn3ccc(NC(C)(C)C)nc23)cc(Cl)n1` [Example 3.2], the results for the Ki in experiment [1], in experiment [2] and in experiment [4] were 0.113 µM, 0.012 µM and greater than 1 µM, respectively.
For `Cc1cc(-c2c(-c3cccc(C#N)c3)nn3ccc(C(=O)N[C@H]4CCCNC4)nc23)cc(Cl)n1` [Example 7.4, 3-(2-Chloro-6-methyl-4-pyridyl)-2-(3-cyanophenyl)-N-[(3S)-3-piperidyl]pyrazolo[1,5-a]pyrimidine-5-carboxamide], in that order: 0.119 µM, 0.0041 µM and greater than 1 µM.
For the compound `Cc1cc(-c2c(-c3cccc(C#N)c3)nn3ccc(C(=O)N[C@@H]4CCCNC4)nc23)cc(Cl)n1` [Example 7.7, 3-(2-Chloro-6-methyl-4-pyridyl)-2-(3-cyanophenyl)-N-[(3R)-3-piperidyl]pyrazolo[1,5-a]pyrimidine-5-carboxamide], the values for the Ki in experiment [1], in experiment [2] and in experiment [4] were 0.012 µM, 0.0149 µM and greater than 1 µM, respectively.
For `Cc1cc(-c2c(-c3cccc(C#N)c3)nn3ccc(C(=O)O)nc23)cc(Cl)n1` [Example 9, 3-(2-Chloro-6-methyl-4-pyridyl)-2-(3-cyanophenyl)pyrazolo[1,5-a]pyrimidine-5-carboxylic acid], in that order: 0.426 µM, 0.094 µM and greater than 1 µM.
The corresponding values for `CCn1nccc1-c1c(-c2cccc(C#N)c2)nn2ccc(C(=O)NCC(C)(C)O)nc12` [Example 12, 2-(3-Cyanophenyl)-3-(2-ethylpyrazol-3-yl)-N-(2-hydroxy-2-methyl-propyl)pyrazolo[1,5-a]pyrimidine-5-carboxamide] are 0.24 µM, 0.145 µM and greater than 1 µM.
With `CCn1nc(C)cc1-c1c(-c2cccc(C#N)c2)nn2ccc(C(=O)NCC(C)(C)O)nc12` [Example 12.1, 2-(3-Cyanophenyl)-3-(2-ethyl-5-methyl-pyrazol-3-yl)-N-(2-hydroxy-2-methyl-propyl)pyrazolo[1,5-a]pyrimidine-5-carboxamide], in experiment [1], the Ki was found to be 1.57 µM.
With `CCn1ncc(C)c1-c1c(-c2cccc(C#N)c2)nn2ccc(C(=O)NCC(C)(C)O)nc12` [Example 12.3, 2-(3-Cyanophenyl)-3-(2-ethyl-4-methyl-pyrazol-3-yl)-N-(2-hydroxy-2-methyl-propyl)pyrazolo[1,5-a]pyrimidine-5-carboxamide], the Ki was 2.31 µM in experiment [1] and greater than 1 µM in experiment [4].
Take `Cn1nccc1-c1c(-c2cccc(C#N)c2)nn2ccc(C(=O)NCC(C)(C)O)nc12` [Example 12.5, 2-(3-Cyanophenyl)-N-(2-hydroxy-2-methyl-propyl)-3-(2-methylpyrazol-3-yl)pyrazolo[1,5-a]pyrimidine-5-carboxamide]: the values for the Ki in experiment [1] and in experiment [3] were 1.51 µM and 2.38 µM, respectively.
With `CC(C)(O)CNC(=O)c1ccn2nc(-c3cccc(C#N)c3)c(-c3cncs3)c2n1` [Example 12.7, 2-(3-Cyanophenyl)-N-(2-hydroxy-2-methyl-propyl)-3-thiazol-5-yl-pyrazolo[1,5-a]pyrimidine-5-carboxamide], the Ki in experiment [1] came out at 0.792 µM; in experiment [2] it was 0.0274 µM; in experiment [3], 0.725 µM.
For `Cc1cc(-c2c(-c3cccc(C#N)c3)nn3ccc(NCCO)nc23)cc(Cl)n1` [Example 19, 3-[3-(2-Chloro-6-methyl-4-pyridyl)-5-(2-hydroxyethylamino)pyrazolo[1,5-a]pyrimidin-2-yl]benzonitrile], in that order: 0.004 µM, 0.0003 µM and 0.016 µM.
For `Cc1cc(-c2c(-c3cccc(C#N)c3)nn3ccc(N[C@@H](C)CO)nc23)cc(Cl)n1` [Example 23.3], the Ki was 0.029 µM in experiment [1], 0.0101 µM in experiment [2] and greater than 1 µM in experiment [4].
Consider `Cc1cc(-c2c(-c3cccc(C#N)c3)nn3ccc(O[C@H]4CCNC4)nc23)cc(Cl)n1` [Example 24.2, 3-[3-(2-Chloro-6-methyl-4-pyridyl)-5-[(3S)-pyrrolidin-3-yl]oxy-pyrazolo[1,5-a]pyrimidin-2-yl]benzonitrile], for which the Ki in experiment [1] was 0.025 µM; in experiment [2], 0.0125 µM; in experiment [4], greater than 1 µM.
`Cc1cc(-c2c(-c3cccc(C#N)c3)nn3ccc(O[C@H]4CCCNC4)nc23)cc(Cl)n1` [Example 24.3, 3-[3-(2-Chloro-6-methyl-4-pyridyl)-5-[[(3S)-3-piperidyl]oxy]pyrazolo[1,5-a]pyrimidin-2-yl]benzonitrile]: the values for the inhibitory constant (Ki) in experiment [1], in experiment [2] and in experiment [4] were 0.091 µM, 0.0508 µM and greater than 1 µM, respectively.
As to `Cc1cc(-c2c(-c3cccc(C#N)c3)nn3ccc(N)nc23)cc(C#N)n1` [Example 26.3, 4-[5-Amino-2-(3-cyanophenyl)pyrazolo[1,5-a]pyrimidin-3-yl]-6-methyl-pyridine-2-carbonitrile], the Ki in experiment [1] was 0.012 µM; in experiment [2], 0.0072 µM; in experiment [3], 0.044 µM.
Consider `Fc1ccccc1-c1cc2nc(NCc3ccccc3)ccn2n1` [Example 36, N-Benzyl-2-(2-fluorophenyl)pyrazolo[1,5-a]pyrimidin-5-amine], for which the Ki is 1.78 µM in experiment [1], 0.175 µM in experiment [2] and greater than 1 µM in experiment [4].
For the compound `N#Cc1c(-c2ccco2)nn2ccc(N3CCN(c4ccccc4)CC3)nc12` [Example 55, 2-(2-Furyl)-5-(4-phenylpiperazin-1-yl)pyrazolo[1,5-a]pyrimidine-3-carbonitrile], the values for the Ki in experiment [1], in experiment [2] and in experiment [4] were 2.37 µM, 0.0431 µM and greater than 1 µM, respectively.
For `Cc1cccnc1CNc1ccn2nc(-c3cccc(F)c3)cc2n1` [Example 66.1, 2-(3-Fluorophenyl)-N-[(3-methyl-2-pyridyl)methyl]pyrazolo[1,5-a]pyrimidin-5-amine], in that order: 1.2 µM, 0.072 µM and greater than 1 µM.
In the case of `Fc1cccc(-c2cc3nc(NCCc4ccccc4)ccn3n2)c1` [Example 66.2, 2-(3-Fluorophenyl)-N-(2-phenylethyl)pyrazolo[1,5-a]pyrimidin-5-amine], the inhibitory constant (Ki) in experiment [1] came to 2.16 µM; in experiment [2] it was 0.284 µM; in experiment [4], 0.025 µM.
As to `Fc1cccc(-c2cc3nc(NCc4nc5ccccc5[nH]4)ccn3n2)c1` [Example 66.3, N-(1H-Benzimidazol-2-ylmethyl)-2-(3-fluorophenyl)pyrazolo[1,5-a]pyrimidin-5-amine], the values for the Ki in experiment [1], in experiment [2] and in experiment [3] were 2.43 µM, 0.492 µM and 0.102 µM, respectively.
Regarding `Fc1cccc(-c2nn3ccc(NCc4ccccc4)nc3c2Cl)c1` [Example 67, N-Benzyl-3-chloro-2-(3-fluorophenyl)pyrazolo[1,5-a]pyrimidin-5-amine], the Ki in experiment [1] is 7.47 µM; in experiment [2], 0.12 µM; in experiment [4], greater than 1 µM.
The corresponding values for `Fc1cccc(-c2nn3ccc(NCc4ccccc4)nc3c2Br)c1` [Example 69, N-Benzyl-3-bromo-2-(3-fluorophenyl)pyrazolo[1,5-a]pyrimidin-5-amine] are 10 µM, 0.141 µM and greater than 1 µM.
In the case of `Nc1ccn2nc(-c3cccc(F)c3)c(Br)c2n1` [Example 71, 3-Bromo-2-(3-fluorophenyl)pyrazolo[1,5-a]pyrimidin-5-amine], the values for the Ki in experiment [1], in experiment [2] and in experiment [4] were 3.86 µM, 0.197 µM and greater than 1 µM, respectively.
Turning to `O=C(O)c1c(-c2ccco2)nn2ccc(NCc3ccccc3)nc12` [Example 76, 5-(Benzylamino)-2-(2-furyl)pyrazolo[1,5-a]pyrimidine-3-carboxylic acid], the Ki in experiment [1] came to 2.43 µM; in experiment [2], 0.116 µM; in experiment [3], 2.54 µM.
